The test system of series [1] is patients with type I/II hereditary angioedema (HAE). The settings on record: phase 2, monthly prophylactic subcutaneous treatment; cited from earlier work.
Series [2] concerns the target T1, Plasma Kallikrein (Homo sapiens, UniProt P03952).
T1 construct: FXIIa converts plasma prekallikrein (PK) to plasma kallikrein (PKa)
Nature of the series: Related protease inhibition: Plasma Kallikrein (fluorogenic substrate at Km). It counts as biochemical. The settings on record: class symbols per Table 18, read-out: IC50 (human PKal). In short, it runs like this:
(§1)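 Percent activity is derived from the linear fluorescence increase per minute, measured over 5 min at 25° C. IC50 marks 50% inhibition of uninhibited activity.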

Series [3] addresses FXIa (Homo sapiens, UniProt P03951). Nature of the series: Related protease inhibition: FXIa (fixed substrate concentration of 100 μM). It counts as biochemical. As to conditions: class symbols per Table 18. As to the method: (§2) In vitro inhibition of related proteases was determined using an IC50 assay based on standard literature methods (see e.g. Shori et al., Biochem. Pharmacol., 1992, 43, 1209; Bouckaert et al., European Journal of Medicinal Chemistry 110 (2016) 181). Human serine protease enzyme Plasma Kallikrein, KLK1, FXa, Plasmin, Thrombin and Trypsin were assayed for enzymatic activity using an appropriate fluorogenic substrate at Km concentration, FXIa at fixed substrate concentration of 100 μM and various concentrations of the test compound. Protease activity was measured by monitoring the accumulation of liberated fluorescence from the substrate over 5 min at 25° C. The linear rate of fluorescence increase per minute was expressed as percentage (%) activity. IC50 values were calculated as the concentration of inhibitor giving 50% inhibition of the uninhibited enzyme activity (100%).

Series [4] has as its target Plasmin (Homo sapiens, UniProt P00747). Nature of the series: Related protease inhibition: Plasmin (fluorogenic substrate at Km). It counts as biochemical. The settings on record: class symbols per Table 18. As to the method:
as §2

For series [5], the target named is Trypsin (Homo sapiens, UniProt P07477). As to the kind of experiment: Related protease inhibition: Trypsin (fluorogenic substrate at Km). It counts as biochemical. As to conditions: class symbols per Table 18. As to the method: as §2
Series [6] concerns the target Thrombin (Homo sapiens, UniProt P00734). As to the kind of experiment: Related protease inhibition: Thrombin (fluorogenic substrate at Km). As to conditions: class symbols per Table 18. It counts as biochemical. The method in brief:
as §1

Series [7] is described as follows: Pharmacokinetics after single intravenous and single oral dose in rats. It counts as in vivo. As to conditions: rat, plasma, male Sprague-Dawley rats, single iv (nominal 1 mg/kg) and single po (nominal 5 mg/kg) dose. As to the method:
Pharmacokinetic studies of the compounds in Table 19 were performed to assess the pharmacokinetics following a single intravenous dose and a single oral dose in male Sprague-Dawley rats. Two rats were given a single intravenous dose of 1 mL/kg of a nominal 1 mg/ml (1 mg/kg) composition of test compound in 10% DMSO/10% Cremophor EL/80% SWFI vehicle. Two rats were given a single oral dose of 5 ml/kg of a nominal 1 mg/mL (5 mg/kg) composition of test compound in 10% DMSO/10% Cremophor EL/80% SWFI vehicle.
Following intravenous dosing, blood samples were collected over a period of 12 h. Sample times were 2, 5, 15 and 30 min then 1, 2, 4, 6, and 12 h. Following oral dosing, blood samples were collected over a period of 24 h. Sample times were 5, 15 and 30 min then 1, 2, 4, 6, 8, 12 and 24 h.
Following collection, blood samples were centrifuged and the plasma fraction analysed for concentration of test compound by LCMS. Oral bioavailability and half-life calculations from these studies were obtained using Phoenix WinNonlin (v8.0) and are shown below: […]

Series [8] has as its target T2, Human Factor XIIa (Homo sapiens, UniProt P00748).
T2 construct: Proteolytic cleavage of FXII to heavy and light chains of FXIIa dramatically increases catalytic activity; purchased Enzyme Research Laboratories
T2 sequence (P00748 373-615 limits assumed): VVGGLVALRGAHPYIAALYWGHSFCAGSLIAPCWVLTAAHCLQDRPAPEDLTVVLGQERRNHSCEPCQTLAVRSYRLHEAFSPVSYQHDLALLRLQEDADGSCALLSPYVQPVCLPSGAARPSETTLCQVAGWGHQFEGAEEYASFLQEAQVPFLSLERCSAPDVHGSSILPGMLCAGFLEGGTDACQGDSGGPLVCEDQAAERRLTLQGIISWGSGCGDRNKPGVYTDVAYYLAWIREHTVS
T2 sequence (P00748 20-372 partner limits assumed): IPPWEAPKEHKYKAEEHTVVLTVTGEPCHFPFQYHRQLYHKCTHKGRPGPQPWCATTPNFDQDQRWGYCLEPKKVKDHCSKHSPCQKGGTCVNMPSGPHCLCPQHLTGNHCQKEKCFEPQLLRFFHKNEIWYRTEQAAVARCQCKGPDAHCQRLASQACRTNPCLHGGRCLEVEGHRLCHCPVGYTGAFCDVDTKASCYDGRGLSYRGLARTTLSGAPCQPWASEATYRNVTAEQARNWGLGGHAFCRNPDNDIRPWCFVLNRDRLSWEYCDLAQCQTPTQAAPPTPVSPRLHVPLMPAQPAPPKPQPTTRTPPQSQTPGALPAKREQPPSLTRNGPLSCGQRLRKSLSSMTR
Nature of the series: Determination of FXIIa inhibition (fluorogenic substrate H-DPro-Phe-Arg-AFC, IC50 assay). It counts as biochemical. As to conditions: substrate at Km concentration, 25° C.; category scale; read-out: Human FXII IC50 (nm). The method in brief:
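Human FXIIa incubated at 25° C. with fluorogenic H-DPro-Phe-Arg-AFC at its Km concentration plus varying compound levels. Linear fluorescence increase over 5 min taken as % activity; IC50 is concentration halving uninhibited activity.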

Series [9] concerns the target KLK1 (Homo sapiens, UniProt P06870). Nature of the series: Related protease inhibition: KLK1 (fluorogenic substrate at Km). It counts as biochemical. The settings on record: class symbols per Table 18. In short, it runs like this:
as §1

In series [10] the target is FXa (Homo sapiens, UniProt P00742). As to the kind of experiment: Related protease inhibition: FXa (fluorogenic substrate at Km). It counts as biochemical. As to conditions: class symbols per Table 18. The method in brief: as §1
FXa, sequence (P00742 235-488 limits assumed): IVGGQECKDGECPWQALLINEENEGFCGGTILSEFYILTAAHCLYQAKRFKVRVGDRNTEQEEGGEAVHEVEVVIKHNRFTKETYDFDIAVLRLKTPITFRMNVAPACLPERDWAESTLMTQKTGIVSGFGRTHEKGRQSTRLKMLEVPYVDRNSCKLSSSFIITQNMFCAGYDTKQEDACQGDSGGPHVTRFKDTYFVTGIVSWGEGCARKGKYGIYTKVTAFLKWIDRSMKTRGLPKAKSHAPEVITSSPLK
FXa, sequence (P00742 41-179 partner limits assumed): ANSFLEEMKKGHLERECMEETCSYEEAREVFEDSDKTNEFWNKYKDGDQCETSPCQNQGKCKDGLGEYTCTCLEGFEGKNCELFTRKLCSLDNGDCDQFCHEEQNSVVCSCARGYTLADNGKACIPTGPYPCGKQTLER

KLK1, sequence (P06870 25-262): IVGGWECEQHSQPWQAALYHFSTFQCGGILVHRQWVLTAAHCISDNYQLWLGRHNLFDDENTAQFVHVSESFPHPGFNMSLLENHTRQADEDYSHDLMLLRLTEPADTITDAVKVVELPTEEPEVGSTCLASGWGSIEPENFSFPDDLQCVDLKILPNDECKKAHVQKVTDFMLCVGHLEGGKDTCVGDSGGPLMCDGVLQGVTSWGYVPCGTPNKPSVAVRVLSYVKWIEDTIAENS
Plasmin, sequence (P00747 581-810 limits assumed): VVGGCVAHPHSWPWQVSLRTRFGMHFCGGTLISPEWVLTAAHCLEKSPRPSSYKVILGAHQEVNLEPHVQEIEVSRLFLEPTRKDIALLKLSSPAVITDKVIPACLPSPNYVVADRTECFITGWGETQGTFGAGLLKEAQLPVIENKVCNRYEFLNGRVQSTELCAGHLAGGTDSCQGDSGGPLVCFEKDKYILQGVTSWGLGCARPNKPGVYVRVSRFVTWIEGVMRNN
Plasmin, sequence (P00747 97-580 partner limits assumed): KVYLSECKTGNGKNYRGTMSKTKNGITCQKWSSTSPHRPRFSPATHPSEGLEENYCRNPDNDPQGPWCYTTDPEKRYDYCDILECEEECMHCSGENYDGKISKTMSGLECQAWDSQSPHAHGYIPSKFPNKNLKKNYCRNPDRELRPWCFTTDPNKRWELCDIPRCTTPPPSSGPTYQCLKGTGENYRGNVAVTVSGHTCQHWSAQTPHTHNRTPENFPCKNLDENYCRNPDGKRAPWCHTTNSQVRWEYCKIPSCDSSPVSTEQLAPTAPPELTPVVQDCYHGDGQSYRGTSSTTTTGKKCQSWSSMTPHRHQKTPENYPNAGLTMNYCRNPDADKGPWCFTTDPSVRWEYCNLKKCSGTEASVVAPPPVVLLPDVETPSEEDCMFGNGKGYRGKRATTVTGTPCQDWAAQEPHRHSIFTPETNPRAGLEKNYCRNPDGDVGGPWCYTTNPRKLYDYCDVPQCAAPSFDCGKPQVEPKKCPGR
FXIa, sequence (P03951 388-625 limits assumed): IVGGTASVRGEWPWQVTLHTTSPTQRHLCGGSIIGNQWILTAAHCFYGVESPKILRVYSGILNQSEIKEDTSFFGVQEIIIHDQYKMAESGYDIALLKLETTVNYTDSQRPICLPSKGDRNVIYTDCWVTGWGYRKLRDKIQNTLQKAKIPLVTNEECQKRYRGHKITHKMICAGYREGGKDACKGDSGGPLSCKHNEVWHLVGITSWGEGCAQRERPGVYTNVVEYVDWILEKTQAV
FXIa, sequence (P03951 19-387 partner limits assumed): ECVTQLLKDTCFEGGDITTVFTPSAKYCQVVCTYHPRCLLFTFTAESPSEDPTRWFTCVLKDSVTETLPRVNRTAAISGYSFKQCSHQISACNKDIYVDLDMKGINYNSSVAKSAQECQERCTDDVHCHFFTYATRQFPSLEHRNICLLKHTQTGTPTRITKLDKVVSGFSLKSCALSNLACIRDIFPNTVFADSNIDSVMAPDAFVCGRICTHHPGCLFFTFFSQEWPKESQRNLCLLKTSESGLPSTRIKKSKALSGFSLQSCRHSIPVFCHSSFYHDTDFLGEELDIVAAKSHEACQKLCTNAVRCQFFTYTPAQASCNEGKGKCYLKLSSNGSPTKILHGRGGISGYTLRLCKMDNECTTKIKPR
T1 sequence (P03952 391-638 limits assumed): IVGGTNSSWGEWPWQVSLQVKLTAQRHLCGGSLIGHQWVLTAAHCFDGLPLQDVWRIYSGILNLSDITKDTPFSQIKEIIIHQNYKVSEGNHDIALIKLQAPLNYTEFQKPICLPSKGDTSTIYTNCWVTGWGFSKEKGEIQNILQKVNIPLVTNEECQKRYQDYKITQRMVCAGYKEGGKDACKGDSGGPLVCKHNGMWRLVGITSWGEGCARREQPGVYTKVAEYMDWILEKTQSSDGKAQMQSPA
T1 sequence (P03952 20-390 partner limits assumed): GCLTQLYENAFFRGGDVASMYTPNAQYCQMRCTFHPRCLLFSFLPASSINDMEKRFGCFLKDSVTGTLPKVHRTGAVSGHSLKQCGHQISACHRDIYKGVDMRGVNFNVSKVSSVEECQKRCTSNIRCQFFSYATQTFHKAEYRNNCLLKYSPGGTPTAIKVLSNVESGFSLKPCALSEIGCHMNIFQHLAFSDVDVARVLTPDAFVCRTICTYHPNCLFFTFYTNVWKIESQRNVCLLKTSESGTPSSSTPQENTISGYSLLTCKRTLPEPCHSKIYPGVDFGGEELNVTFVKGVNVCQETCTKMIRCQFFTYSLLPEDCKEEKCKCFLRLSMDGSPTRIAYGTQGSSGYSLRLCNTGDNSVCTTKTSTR

For “Garadacimab: "a monoclonal antibody inhibitory against FXIIa"”, in series [1], the preventing attacks result is on record as “effective in preventing attacks” and the tolerability entry is on record as “well tolerated”.
For orientation: IC50 means the concentration that gives 50% inhibition. By half-life is commonly meant the time needed for the level to fall by half in the phase considered. The low end stands for rapid decline, the high end for slow decline. Usually bioavailability stands for the share of a dose that reaches the circulation, judged against a reference dose that is usually intravenous. Read a high bioavailability as much systemic uptake. On to `Nc1nccc2c(NCC34CC(COc5ccn6ccnc6c5)(C3)C4)cccc12` [Example 1001, N5-((3-((Imidazo[1,2-a]pyridin-7-yloxy)methyl)bicyclo[1.1.1]pentan-1-yl)methyl)isoquinoline-1,5-diamine], for which the half-inhibitory concentration (IC50) in series [2] is above 40 µM; in series [3] it was above 40 µM; in series [4], above 40 µM; in [5], above 40 µM; in series [6], 10 to 40 µM; in series [8], 0.1 to 0.3 µM. For the same compound, the IC50 was 3 to 10 µM in series [9] and 10 to 40 µM in series [10]. Moreover, the half-life in [7] (half-life, Phoenix WinNonlin) turned out to be 7.83 h. Further, the bioavailability in series [7] (oral bioavailability, 10% DMSO/10% Cremophor EL/80% SWFI) came to 30.4%.
For the compound `Nc1nccc2c(NCC34CC(COC5CCn6ccnc6C5)(C3)C4)cccc12` (racemic) [Example 1002, N5-((3-(((5,6,7,8-Tetrahydroimidazo[1,2-a]pyridin-7-yl)oxy)methyl)bicyclo[1.1.1]pentan-1-yl)methyl)isoquinoline-1,5-diamine], the 50% inhibitory concentration (IC50) was above 40 µM in series [2]; above 40 µM in series [3]; above 40 µM in series [4]; 10 to 40 µM in [5]; 10 to 40 µM in series [6]; 0.1 to 0.3 µM in [8]. The half-maximal inhibitory concentration (IC50) fell in the range of 3 to 10 µM in series [9] and 10 to 40 µM in [10].

Values taken from patent US20240327412A1, “FACTOR XIIA INHIBITORS” (KALVISTA PHARMACEUTICALS LIMITED, priority 2021, published 2024).
